Data from paper PMC5645128, “Hydrophobic residues are critical for the helix-forming, hemolytic and bactericidal activities of amphipathic antimicrobial peptide TP4” (PLoS ONE, 2017).
Values after ≈ are worked out from the molar mass of the structure shown. Ends that are not written are not given here.

Legend:
P. aeruginosa = type: cell-based, Pseudomonas aeruginosa
Experimental: (§1) All the tested microbes were cultured at 37°C except C. albicans (30°C) in respective medium. 90 μl of cell suspension (2–4 x10^6 cfu/ml) mixed with 10 μl of diluted TP4 were loaded in 96-well microplate and incubated overnight with gentle agitation at 100 rpm. The absorbance of TP4-treated bacteria in 96-well plate was measured by SpectraMax 190 microplate reader at 600 nm. The remaining cfu in the TP4-treated sample was determined by plating on agar plates. Minimum inhibitory concentration (MIC) was defined as the lowest AMP concentration in order to keep the solution with the same absorbance as that of culture medium. Minimum bactericidal concentration (MBC) was defined as the lowest AMP concentration able to kill 99.99% of microorganisms. At least three independent experiments were performed to determine the average value with standard deviation.

S. aureus = type: cell-based, Staphylococcus aureus
Experimental: as §1

MRSA = type: cell-based, methicillin-resistant Staphylococcus aureus
Experimental: as §1

C. albicans = type: cell-based, Candida albicans
Experimental: as §1

mouse red blood cells = type: cell-based
Experimental: For blood collection, cardiac puncture was performed on anesthetized mice (by 3% isoflurane) by a 1 ml heparin-rinsed syringe with a 22 gauge needle. After blood collection, the animals were euthanized by cervical dislocation. Fresh mouse blood was rinsed three times with PBS, centrifuged for 5 minutes at 1500 rpm and re-suspended in PBS (1:30 dilution). The diluted erythrocyte (150 μl) was incubated with TP4-derived peptides at 37°C for 3 hr and centrifuged at 120x g for 5 minutes. The supernatants (100 μl) were transferred to a 96-well plate and the absorbance of released hemoglobin was measured by SpectraMax 190 microplate reader at 414 nm. Percent hemolysis was calculated by the following formula: % hemolysis = [(A414in the peptide solution−A414in PBS)/(A414in 0.1% Triton-X 100 –A414in PBS)]. Zero and 100% hemolysis were determined in PBS and 0.1% Triton-X 100, respectively.
Fig 8 Hemolytic activity of TP4-derived peptides. Diluted mouse red blood cells (150 μl) was incubated with TP4-derived peptides at 37°C for 3 hr and spun at 120 x g for 5 minutes. The supernatants (100 μl) were transferred to a 96-well plate for measurement of released hemoglobulin at 414 nm by the SpectraMax 190 microplate reader.

[1] = type: physicochemical
Experimental: Fig 4 Hydrophobicity and solubility of TP4 in the presence of sarkosyl and LPS. (A) ANS emission spectrum of TP4 in solution containing sarkosyl. TP4 (4 μg) was dissolved in 200 μl of 10 mM sodium phosphate, pH7.4, 0.1 M NaCl, containing various concentrations of sarkosyl (0.075%, w/v, designated as 1x). (B) ANS emission spectrum of TP4 in solution containing LPS. TP4 (4 μg) was dissolved in 200 μl of 10 mM sodium phosphate, pH7.4, containing various amounts of LPS as indicated. ANS was added stepwise to the final concentrations as indicated (lines 1 to 6 at 0, 10, 20, 30, 40 and 50 μM, respectively). Arrows indicate the emission maximum at 470 nm or 520 nm for bound- and free-form ANS, respectively. (C, D) Solubility of TP4 in solution containing either sarkosyl or LPS. TP4 (4 μg) dissolved in 200 μl of respective solution containing sarkosyl or LPS at concentration as indicated was spun at 14,000 x g for 15 min and analyzed by SDS-PAGE/Coomassie blue staining.
Fig 9 OprI-binding ability of TP4-derived peptides. (A) Competition for OprI binding by TP4-derived peptides. […] The gel pellet was analyzed by non-reducing SDS-PAGE/Coomassie blue staining. rOprI, recombinant OprI; S.t, Streptavidin. […] TP4-derived peptides (6 μg each) dissolved in 1x sarkosyl buffer (300 μl) were incubated at 37°C for 10 min, then spun at 14,000 x g for 15 min and analyzed by SDS-PAGE/Coomassie blue staining. […]

| Compound | MBC (P. aeruginosa) [µg/mL] | MIC (P. aeruginosa) [µg/mL] | MBC (S. aureus) [µg/mL] | MIC (S. aureus) [µg/mL] | MBC (MRSA) [µg/mL] | MIC (MRSA) [µg/mL] | MBC (C. albicans) [µg/mL] | MIC (C. albicans) [µg/mL] | hemolytic activity compared with wild type TP4 (mouse red blood cells) | solubility of TP4 in 1x Sar [1] |
| --- | --- | --- | --- | --- | --- | --- | --- | --- | --- | --- |
| CC[C@H](C)[C@H](NC(=O)[C@H](CO)NC(=O)[C@H](Cc1ccccc1)NC(=O)[C@H](CC(C)C)NC(=O)CNC(=O)CNC(=O)[C@@H](NC(=O)[C@@H](NC(=O)[C@H](Cc1c[nH]cn1)NC(=O)[C@H](Cc1c[nH]cn1)NC(=O)[C@@H](NC(=O)[C@@H](N)Cc1ccccc1)[C@@H](C)CC)[C@@H](C)CC)[C@@H](C)CC)C(=O)NCC(=O)N[C@@H](CCCCN)C(=O)N[C@H](C(=O)N[C@H](C(=O)N[C@@H](Cc1c[nH]cn1)C(=O)N[C@@H](CCCNC(=N)N)C(=O)N[C@@H](CC(C)C)C(=O)N[C@H](C(=O)N[C@@H](CCCNC(=N)N)C(=O)N[C@@H](CCCNC(=N)N)C(=O)N[C@@H](CCCNC(=N)N)C(=O)N[C@@H](CCCNC(=N)N)C(=O)N[C@@H](CCCNC(=N)N)C(=O)O)[C@@H](C)CC)[C@@H](C)CC)[C@@H](C)CC [A12I/A15I] | >512 | 512 (≈ 167 µM) | 64 (≈ 20.9 µM) | 16 (≈ 5.22 µM) | 256 (≈ 83.5 µM) | 64 (≈ 20.9 µM) | 128 (≈ 41.8 µM) | 128 (≈ 41.8 µM) | four times higher activity than wild type TP4 | – |
| AAHHIIGGLFSAGKAIHRLIRRRRR [F1A/I2A] | 256 | 256 | 256 | 128 | >512 | >512 | 128 | 64 | – | – |
| FIAAIIGGLFSAGKAIHRLIRRRRR [H3A/H4A] | >512 | >512 | 32 | 32 | 256 | 128 | 512 | 512 | – | – |
| FIHHAAGGLFSAGKAIHRLIRRRRR [I5A/I6A] | 512 | 512 | >512 | >512 | >512 | >512 | 128 | 128 | – | – |
| FIHHIIGGAASAGKAIHRLIRRRRR [L9A/F10A] | >512 | >512 | >512 | >512 | >512 | >512 | 128 | 128 | – | – |
| FIHHIIGGLFSAGKAAHRLIRRRRR [I16A] | >512 | 256 | 128 | 64 | 512 | 64 | 128 | 128 | – | – |
| FIHHIIGGLFSAGKAEHRLIRRRRR [I16E] | >512 | >512 | >512 | >512 | >512 | >512 | 128 | 128 | – | – |
| FIHHIIGGLFSAGKAIHRHHRRRRR [L19H/I20H] | >512 | 256 | 512 | 128 | >512 | >512 | 128 | 128 | – | – |
| FIHHIIGGLFSAGKAIHRLIR [dC4] | >512 | >512 | 128 | 64 | 256 | 256 | 256 | 128 | – | – |
| FIHHIIGGLFSAGKAIHRLIRRR [dC2] | >512 | 512 | 32 | 16 | 32 | 32 | 128 | 128 | – | – |
| FIHHIIGGLFSAGKAIHRLIRRRRR [TP4] [listing 1 of 2 here] | 128 | 64 | 16 | 8 | 32 | 16 | 128 | 128 | – | – |
| FIHHIIGGLFSAGKAIHRLIRRRRR [TP4] [listing 2 of 2 here] | – | – | – | – | – | – | – | – | – | less than 80 μM |
| FIHHIIGGLFSAGKAIHSLIHRRRR [R18S/R21H] | 512 | 256 | 64 | 32 | 32 | 32 | 512 | 256 | – | – |
| FIHHIIGGLFSAGKARHRLIRRRRR [I16R] | >512 | >512 | >512 | >512 | >512 | >512 | 256 | 128 | – | – |
| FIHHIIGGLFSVGKHIHRLIRRRRR [A12V/A15H] | 128 | 128 | 16 | 16 | 64 | 32 | 128 | 128 | – | – |
| FIHHIIGGLFSVGKHIHSLIHGH [TP3, reference compound] | >512 | >512 | 256 | 256 | >512 | 256 | 128 | 128 | – | – |
| FIHHIIGGLFSVGKHIHSLIHRRRR [VHSH] | >512 | >512 | 16 | 16 | 32 | 16 | 128 | 128 | – | – |
| HHIIGGLFSAGKAIHRLIRRRRR [dN2] | >512 | 512 | 512 | 512 | >512 | >512 | 128 | 128 | – | – |
| IIGGLFSAGKAIHRLIRRRRR [dN4] | >512 | 256 | 128 | 128 | 256 | 64 | 128 | 64 | – | – |
